Measurements reported in patent US20060063828A1 (priority 2004, published 2006).

Legend:
[1] = tested on: VCAM-1; assay: In Vitro VCAM-1 Assay (ELISA of VCAM-1 on TNF-α stimulated endothelial cells); assay type: cell-based; settings: Endothelial cell; primary human aortic (HAEC) or pulmonary (HPAEC) endothelial cells, TNF-α (1 ng/ml), approximately 16 hours
Procedure: Cell Culture and compound dosing: Cultured primary human aortic (HAEC) or pulmonary (HPAEC) endothelial cells were obtained from Clonetics, Inc., and were used below passage 9. Cells were seeded in 96 well plates such that they would reach 90-95% confluency by the following day. On the following day the cells were stimulated with TNF-α (1 ng/ml) in the presence or absence of compounds dissolved in DMSO such that the final concentration of DMSO is 0.25% or less. To establish a dose curve for each compound, four concentrations in 2- to 5-fold increments were used. Cells were exposed to TNF-α and compounds for approximately 16 hours. The next day the cells were examined under microscope to score for visual signs of toxicity or cell stress.
Following 16 hr exposure to TNF-α and compound the media was discarded and the cells were washed once with Hanks Balanced Salt Solution (HBSS)/Phosphate buffered saline (PBS) (1:1). Primary antibodies against VCAM-1 (0.25 μg/ml in HBSS/PBS+5% FBS) were added and incubated for 30-60 minutes at 37° C. Cells were washed with HBSS/PBS three times, and secondary antibody Horse Radish Peroxidase (HRP)-conjugated goat anti-mouse IgG (1:500 in HBSS/PBS+5% FBS) were added and incubated for 30 minutes at 37° C. Cells were washed with HBSS/PBS four time and TMB substrate were added and incubated at room temperature in the dark until there was adequate development of blue color. The length of time of incubation was typically 5-15 minutes. 2N sulfuric acid was added to stop the color development and the data was collected by reading the absorbance on a BioRad ELISA plate reader at OD 450 nm. The results are expressed as IC50 values (the concentration (micromolar) of compound required to inhibit 50% of the maximal response of the control sample stimulated by TNF-α only).

[2] = tested on: Male Lewis rats; assay: Rheumatoid Arthritis Protocol (adjuvant-induced paw swelling); assay type: in vivo; settings: M. butyricum adjuvant
Procedure: Male Lewis rats (150-175 g) from Charles River Laboratories were anesthetized on day 0 with 3-5% isoflurane anesthesia while the tail base was shaved and adjuvant mixture was injected. 50 μL of adjuvant (10 mg/ml M. butyricum in mineral oil) was injected subcutaneously into two sites at the tail base. Paw swelling was monitored using a plethysmometer (UGO Basile), after shaving each leg to the level of the Achilles tendon to mark the level of immersion. A baseline paw measurement for both hindpaws was taken between […] a second measurement was taken on day 8. Onset of paw swelling occurred rapidly between days 8-11 and daily measurements were performed every weekday between day 8 and day 14. Compounds of the invention and vehicles were dosed therapeutically (d8-13) after swelling was confirmed. Solutions were injected subcutaneously or given orally by gavage 1-2 times per day. From day 0, rats were weighed on days 0, 8, 11, and 14 and overall health was monitored. Plasma drug levels, if desired, were measured in tail-vein derived blood samples taken on day 13. On day 14, blood samples were obtained by cardiac puncture, rats were euthanized with CO2, selected organs were removed and both hindpaws were amputated and placed in 10% buffered formalin for histopathological analysis. See Biological Table 2.

[3] = tested on: Balb/C mice; assay: Asthma Protocol (ovalbumin sensitized and challenged mice, bronchoaveolar lavage cell counts); assay type: in vivo; settings: ovalbumin sensitized and aerosol challenged, lavage fluid cell counts
Procedure: Balb/C mice (6-8 weeks old) are sensitized to ovalbumin (ova) (8 ug ova absorbed in 3.3 mg Alum inject) on days 0 and 5. On day 12, the mice were aerosol challenged with 0.5% ovalbumin dissolved in sterile saline for 1 h in the AM, and then again in the PM (at least 4 h apart). On day 14, the mice were anesthetized with ketamine/xylazine/acepromazine cocktail, exsanguinated, and then euthanized. Following blood collection, bronchoaveolar lavage was performed on each animal. Total cell counts were conducted on the lavage fluid. The lavage fluid was processed and slides were made by spinning the samples with a cytospin centrifuge. Slides were airdried and stained using Diff-Quik® stain. Cell differentials of the lavage fluid were completed at the conclusion of the study. Statistical analysis involved ANOVA and Tukey-Kramer post hoc tests. Compounds were administered by subcutaneous injection twice daily from day 11-13. The formulations used contained various mixtures of the following excipients (pharmasolve, cremophor RH 40, tween 80, PEG 300). See Biological Table 3

Row | IC50 [1] | melting point | SMILES | % Inhibition 20 mg/kg sq, bid, d8-13 [2] | % Inhibition 6 mg/kg sq, bid, d11-13 [3]
1 | < 1000 nM |  | C=C(C(=O)c1ccc(C(=O)O)cc1)c1cc(-c2cccs2)ccc1OC [Example 8, 4-[2-(2-Methoxy-5-thien-2-yl-phenyl)-acryloyl]-benzoic acid] | 44% | 50%
2 | < 6000 nM | 56.5 °C (dec.) | C=C(C(=O)c1c(OC)cccc1OC)c1ccc(OC(C)(C)C(=O)O)c(-c2cccs2)c1 [Example 37, 2-{4-[1-(2,6-Dimethoxy-benzoyl)-vinyl]-2-thien-2-yl-phenoxy}-2-methyl-propionic acid] |  | 27%
3 | < 1000 nM | 193 to 195 °C | C=C(C(=O)c1c(OC)ccc(-c2cccs2)c1OC)c1ccc(C(=O)O)cc1 [Example 30, 4-[1-(2,6-Dimethoxy-3-thien-2-yl-benzoyl)-vinyl]-benzoic acid] | 77% | 45%
